Key:
Assay in all cases: relative viability (nuclei count vs DMSO), 5 days (fraction); higher = more cells survive
Imatinib + Luminespib = compound: Cc1ccc(NC(=O)c2ccc(CN3CCN(C)CC3)cc2)cc1Nc1nccc(-c2cccnc2)n1 [Imatinib] + CCNC(=O)c1noc(-c2cc(C(C)C)c(O)cc2O)c1-c1ccc(CN2CCOCC2)cc1 [Luminespib] (partner 0.01 µM)
In short: (§1)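 For relative viability, nuclei counts in treated wells were divided by those in vehicle wells. Lung cancer cell lines had been pin-tool dosed in 1536-well plates the day after seeding and cultured for 5 days, then fixed and stained in one step (final 0.05% Triton X-100, 1% formaldehyde, 1 ug/ml Hoechst) and imaged at 4×. Doses were one drug alone or a fixed anchor-drug dose plus five library-drug doses (not always all listed) in √10 steps, and values are duplicate-plate medians.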

Imatinib + OSI-027 = compound: Cc1ccc(NC(=O)c2ccc(CN3CCN(C)CC3)cc2)cc1Nc1nccc(-c2cccnc2)n1 [Imatinib] + COc1cccc2cc(-c3nc([C@H]4CC[C@H](C(=O)O)CC4)n4ncnc(N)c34)[nH]c12 [OSI-027] (partner 0.5 µM)
In short: as §1

Imatinib + AZD7762 = compound: Cc1ccc(NC(=O)c2ccc(CN3CCN(C)CC3)cc2)cc1Nc1nccc(-c2cccnc2)n1 [Imatinib] + NC(=O)Nc1cc(-c2cccc(F)c2)sc1C(=O)N[C@H]1CCCNC1 [AZD7762] (partner 0.2 µM)
In short: as §1

Imatinib + Decitabine = compound: Cc1ccc(NC(=O)c2ccc(CN3CCN(C)CC3)cc2)cc1Nc1nccc(-c2cccnc2)n1 [Imatinib] + Nc1ncn([C@H]2C[C@H](O)[C@@H](CO)O2)c(=O)n1 [Decitabine] (partner 2 µM)
In short: as §1

Cell Line | relative viability (Imatinib + Luminespib; first compound 0.02 µM) | relative viability (Imatinib + Luminespib; first compound 0.06325 µM) | relative viability (Imatinib + Luminespib; first compound 0.2 µM) | relative viability (Imatinib + Luminespib; first compound 0.6325 µM) | relative viability (Imatinib + Luminespib; first compound 2 µM) | relative viability (Imatinib + OSI-027; first compound 0.02 µM) | relative viability (Imatinib + OSI-027; first compound 0.06325 µM) | relative viability (Imatinib + OSI-027; first compound 0.2 µM) | relative viability (Imatinib + OSI-027; first compound 0.6325 µM) | relative viability (Imatinib + OSI-027; first compound 2 µM) | relative viability (Imatinib + AZD7762; first compound 0.02 µM) | relative viability (Imatinib + AZD7762; first compound 0.06325 µM) | relative viability (Imatinib + AZD7762; first compound 0.2 µM) | relative viability (Imatinib + AZD7762; first compound 0.6325 µM) | relative viability (Imatinib + AZD7762; first compound 2 µM) | relative viability (Imatinib + Decitabine; first compound 0.02 µM) | relative viability (Imatinib + Decitabine; first compound 0.06325 µM) | relative viability (Imatinib + Decitabine; first compound 0.2 µM) | relative viability (Imatinib + Decitabine; first compound 0.6325 µM) | relative viability (Imatinib + Decitabine; first compound 2 µM)
NCI-H838 | 0.33 | 0.3 | 0.363 | 0.275 | 0.266 | 0.407 | 0.389 | 0.406 | 0.407 | 0.421 | 1.04 | 1.03 | 0.961 | 0.954 | 1.02 | 0.464 | 0.497 | 0.469 | 0.488 | 0.424
NCI-H460 | 0.0343 | 0.0424 | 0.0365 | 0.0344 | 0.0321 | 0.743 | 1.09 | 0.819 | 0.566 | 0.503 | 0.658 | 0.783 | 0.606 | 0.489 | 0.509 | 0.603 | 0.333 | 0.63 | 0.511 | 0.575
SW 900 | 0.201 | 0.146 | 0.168 | 0.175 | 0.161 | 0.564 | 0.397 | 0.548 | 0.583 | 0.496 | 0.784 | 0.572 | 0.605 | 0.619 | 0.529 | 0.37 | 0.467 | 0.499 | 0.468 | 0.411
HCC-15 | 0.311 |  | 0.358 | 0.33 | 0.297 | 0.716 |  | 0.623 | 0.683 | 0.666 | 0.449 |  | 1.32 | 1.42 | 1.3 | 0.605 | 0.598 | 0.638 | 0.677 | 0.524
LC-2-ad | 1.23 | 0.744 | 0.935 | 1 | 1.07 | 0.788 | 0.623 | 0.822 | 0.833 | 0.929 | 0.965 |  | 0.76 | 0.772 | 0.813 | 0.816 |  | 0.948 | 0.824 | 0.759
NCI-H1792 | 0.519 | 0.321 | 0.432 | 0.447 | 0.365 | 0.84 | 0.549 | 0.697 | 0.162 | 0.673 | 0.727 | 0.7 | 0.513 |  | 0.34 | 0.573 | 0.496 | 0.576 |  | 0.449
PC-3 [JPC-3] | 0.764 |  | 0.705 | 0.704 | 0.734 | 0.792 |  | 0.854 | 0.877 | 0.711 | 0.979 |  |  | 0.921 | 0.635 | 0.861 |  |  | 0.776 | 0.84
NCI-H358 | 0.317 | 0.608 | 0.501 | 0.308 | 0.418 | 0.861 | 0.382 | 0.843 | 0.635 | 0.855 | 0.559 |  | 0.489 | 0.574 | 0.521 | 0.205 | 0.168 | 0.214 | 0.207 | 0.202
NCI-H1993 | 0.949 | 0.745 | 0.885 | 0.608 | 0.854 | 0.538 | 0.491 | 0.617 | 0.543 | 0.625 | 1.08 | 0.728 | 0.724 | 0.736 | 0.701 | 0.629 | 0.718 | 0.662 | 0.643 | 0.528
H3255 | 0.922 | 0.415 |  | 0.865 | 0.777 | 0.568 | 0.662 | 0.539 | 0.612 | 0.548 | 1.02 | 0.784 |  | 0.95 | 0.842 | 0.605 |  | 0.544 | 0.633 | 0.504
HARA | 0.912 |  | 0.684 | 0.489 | 0.997 | 0.47 |  | 0.518 | 0.583 | 0.404 | 0.361 | 0.267 | 0.292 | 0.232 | 0.304 | 0.584 | 0.518 | 0.503 | 0.473 | 0.579
NCI-H2347 | 0.499 | 0.425 | 0.431 | 0.475 | 0.608 | 0.287 | 0.384 | 0.318 | 0.442 | 0.426 | 0.824 |  | 0.848 |  | 0.657 | 0.58 |  | 0.653 | 0.615 | 0.632
LU99A | 0.276 | 0.247 | 0.227 | 0.219 | 0.245 | 0.315 | 0.285 | 0.301 | 0.323 | 0.28 | 0.437 | 0.274 | 0.336 | 0.254 | 0.405 | 0.986 | 0.827 | 0.824 | 0.812 | 0.903
A-427 | 1.06 |  | 0.868 | 0.903 | 0.9 | 0.503 |  | 0.5 | 0.447 | 0.47 | 0.812 | 0.84 | 0.634 | 0.654 | 0.572 | 0.588 | 0.536 | 0.558 | 0.558 | 0.562
NCI-H727 | 0.319 |  | 0.242 | 0.323 | 0.31 | 0.455 | 0.476 | 0.519 | 0.773 | 0.551 | 0.651 |  | 0.506 | 0.573 | 0.507 |  |  | 0.904 | 0.84 | 0.808
LK-2 | 0.168 | 0.174 | 0.168 | 0.196 | 0.199 | 0.178 | 0.207 | 0.151 | 0.217 | 0.212 | 0.343 | 0.442 | 0.335 |  | 0.33 | 0.336 | 0.323 | 0.237 |  | 0.183
BEN | 0.402 |  | 0.29 | 0.355 | 0.156 | 0.285 |  | 0.262 | 0.287 | 0.302 | 0.702 | 0.544 | 0.681 | 0.782 | 0.582 | 0.711 | 0.557 | 0.738 | 0.732 | 0.732
PC-14 | 0.16 |  | 0.232 |  | 0.165 | 0.991 | 0.282 | 0.856 | 0.76 | 0.833 | 0.465 | 0.477 | 0.338 | 0.453 | 0.334 | 0.253 | 0.244 | 0.249 | 0.199 | 0.208
